Where “and” joins values, the source holds several entries; their conditions need not be identical. Equal entries are not always repeated. ± gives the expanded uncertainty stated by the source.
What was measured:
[1] = refractive index (Na D-line) (dimensionless); details: 101.33 kPa, Liquid, Standard Abbe refractometry
[2] = for surface tension liquid-gas: Ring tensiometer; for viscosity / speed of sound / mass density: 101 kPa, Liquid; for viscosity: Capillary tube (Ostwald / Ubbelohde) method; for speed of sound: Sing-around technique in a fixed-path interferometer; for mass density: Vibrating tube method
[3] = refractive index (Na D-line) (dimensionless); xn = mol fraction of the nth substance listed; details: 101 kPa, Liquid, Standard Abbe refractometry, x1 = 1
[4] = xn = mol fraction of the nth substance listed; details: x1 = 1; for surface tension liquid-gas: Ring tensiometer; for viscosity / speed of sound / mass density: 101 kPa, Liquid; for viscosity: Capillary tube (Ostwald / Ubbelohde) method; for speed of sound: Sing-around technique in a fixed-path interferometer; for mass density: Vibrating tube method

Row | Structure (SMILES) | refractive index ([1]; 293.15 K) | refractive index ([1]; 303.15 K) | refractive index ([1]; 313.15 K) | refractive index ([1]; 323.15 K) | surface tension liquid-gas ([2]; 293.15 K) | viscosity ([2]; 293.15 K) | speed of sound ([2]; 293.15 K) | mass density ([2]; 293.15 K) | surface tension liquid-gas ([2]; 303.15 K) | viscosity ([2]; 303.15 K) | speed of sound ([2]; 303.15 K) | mass density ([2]; 303.15 K) | surface tension liquid-gas ([2]; 313.15 K) | viscosity ([2]; 313.15 K) | speed of sound ([2]; 313.15 K) | mass density ([2]; 313.15 K) | surface tension liquid-gas ([2]; 323.15 K) | viscosity ([2]; 323.15 K) | speed of sound ([2]; 323.15 K) | mass density ([2]; 323.15 K) | also measured
1 | C[C@H](O)CN [(2S)-1-amino-2-propanol] | 1.448 ± 0.0007 | 1.4442 ± 0.0007 | 1.4401 ± 0.0007 | 1.436 ± 0.0007 | 37.6 ± 0.6 mN/m | 31.67 ± 0.46 mPa·s | 1560.8 ± 3.4 m/s | 960.8 ± 0.8 kg/m3 | 36.9 ± 0.6 mN/m | 17.71 ± 0.29 mPa·s | 1528.3 ± 3.4 m/s | 952.8 ± 0.8 kg/m3 | 36.3 ± 0.6 mN/m | 10.65 ± 0.16 mPa·s | 1495.7 ± 3.4 m/s | 944.7 ± 0.8 kg/m3 | 35.9 ± 0.6 mN/m | 6.961 ± 0.11 mPa·s | 1462.9 ± 3.4 m/s | 936.5 ± 0.8 kg/m3 | –
2 | CC(O)CNCC(C)O (stereo not given) [N-(2-hydroxypropyl)-2-hydroxy-1-propanamine] | – | – | – | 1.4512 ± 0.0008 | – | – | – | – | – | – | – | – | – | – | – | – | 34.5 ± 0.6 mN/m | 125.73 ± 3.3 mPa·s | 1420.3 ± 3.4 m/s | 984.1 ± 0.9 kg/m3 | –
3 | CN1CCCC1=O [N-methylpyrrolidone] | 1.4688 ± 0.0005 | 1.4657 ± 0.0006 | 1.4621 ± 0.0006 | 1.4579 ± 0.0006 | 42.7 ± 0.6 mN/m | 1.899 ± 0.018 mPa·s | 1567.9 ± 2.9 m/s | 1033.6 ± 0.5 kg/m3 | 41.5 ± 0.6 mN/m and 41.3 ± 0.6 mN/m | 1.592 ± 0.015 mPa·s | 1529.7 ± 2.9 m/s | 1024.7 ± 0.5 kg/m3 | 40.8 ± 0.6 mN/m and 41 ± 0.6 mN/m | 1.353 ± 0.013 mPa·s | 1491.2 ± 2.9 m/s | 1015.7 ± 0.5 kg/m3 | 40 ± 0.6 mN/m and 39.8 ± 0.6 mN/m | 1.17 ± 0.011 mPa·s | 1454.6 ± 2.9 m/s | 1006.8 ± 0.5 kg/m3 | –
4 | CN1CCCC1=O [N-methylpyrrolidone] + CC(O)CNCC(C)O | – | – | – | – | – | – | – | – | – | – | – | – | – | – | – | – | – | – | – | – | refractive index ([3]; 293.15 K): 1.4688 ± 0.0005; refractive index ([3]; 303.15 K): 1.4657 ± 0.0006; refractive index ([3]; 313.15 K): 1.4621 ± 0.0006; refractive index ([3]; 323.15 K): 1.4579 ± 0.0006; surface tension liquid-gas ([4]; 293.15 K): 42.7 ± 0.6 mN/m; viscosity ([4]; 293.15 K): 1.899 ± 0.018 mPa·s; speed of sound ([4]; 293.15 K): 1567.9 ± 2.9 m/s; mass density ([4]; 293.15 K): 1033.6 ± 0.5 kg/m3; surface tension liquid-gas ([4]; 303.15 K): 41.3 ± 0.6 mN/m; viscosity ([4]; 303.15 K): 1.592 ± 0.015 mPa·s; speed of sound ([4]; 303.15 K): 1529.7 ± 2.9 m/s; mass density ([4]; 303.15 K): 1024.7 ± 0.5 kg/m3; surface tension liquid-gas ([4]; 313.15 K): 41 ± 0.6 mN/m; viscosity ([4]; 313.15 K): 1.353 ± 0.013 mPa·s; speed of sound ([4]; 313.15 K): 1491.2 ± 2.9 m/s; mass density ([4]; 313.15 K): 1015.7 ± 0.5 kg/m3; surface tension liquid-gas ([4]; 323.15 K): 39.8 ± 0.6 mN/m; viscosity ([4]; 323.15 K): 1.17 ± 0.011 mPa·s; speed of sound ([4]; 323.15 K): 1454.6 ± 2.9 m/s; mass density ([4]; 323.15 K): 1006.8 ± 0.5 kg/m3
5 | CN1CCCC1=O [N-methylpyrrolidone] + C[C@H](O)CN | – | – | – | – | – | – | – | – | – | – | – | – | – | – | – | – | – | – | – | – | refractive index ([3]; 293.15 K): 1.4688 ± 0.0005; refractive index ([3]; 303.15 K): 1.4657 ± 0.0006; refractive index ([3]; 313.15 K): 1.4621 ± 0.0006; refractive index ([3]; 323.15 K): 1.4579 ± 0.0006; surface tension liquid-gas ([4]; 293.15 K): 42.7 ± 0.6 mN/m; viscosity ([4]; 293.15 K): 1.899 ± 0.018 mPa·s; speed of sound ([4]; 293.15 K): 1567.9 ± 2.9 m/s; mass density ([4]; 293.15 K): 1033.6 ± 0.5 kg/m3; surface tension liquid-gas ([4]; 303.15 K): 41.5 ± 0.6 mN/m; viscosity ([4]; 303.15 K): 1.592 ± 0.015 mPa·s; speed of sound ([4]; 303.15 K): 1529.7 ± 2.9 m/s; mass density ([4]; 303.15 K): 1024.7 ± 0.5 kg/m3; surface tension liquid-gas ([4]; 313.15 K): 40.8 ± 0.6 mN/m; viscosity ([4]; 313.15 K): 1.353 ± 0.013 mPa·s; speed of sound ([4]; 313.15 K): 1491.2 ± 2.9 m/s; mass density ([4]; 313.15 K): 1015.7 ± 0.5 kg/m3; surface tension liquid-gas ([4]; 323.15 K): 40 ± 0.6 mN/m; viscosity ([4]; 323.15 K): 1.17 ± 0.011 mPa·s; speed of sound ([4]; 323.15 K): 1454.6 ± 2.9 m/s; mass density ([4]; 323.15 K): 1006.8 ± 0.5 kg/m3
